Literature values in patent US20140178456A1, “METHODS AND COMPOSITIONS FOR TREATING TYPE 2 DIABETES AND RELATED CONDITIONS” (priority 2012, published 2014).
Where a name gives a salt, the structure may show the parent alone.

| peak plasma concentration (oral administration of 8 mg rosiglitazone maleate) | Compound | peak plasma concentration of pioglitazone and its active metabolites (oral administration of 30 mg pioglitazone) |
| --- | --- | --- |
|  | CCc1ccc(CCOc2ccc(CC3SC(=O)NC3=O)cc2)nc1 (centres unmarked) [pioglitazone] | about 146 μg per liter |
| about 46114 per liter | CN(CCOc1ccc(CC2SC(=O)NC2=O)cc1)c1ccccn1 (centres unmarked) [rosiglitazone maleate] |  |
